Assay results published in patent publication US20230019280A1, “SUBSTITUTED ISOINDOLONYL 2,2'-BIP[…], ANALOGUES THEREOF, AND METHODS USING SAME” (priority 2019, published 2023).
pEC50: −log10 of the molar value.

Tested on: HBsAg
Experiment: HBsAg assay (inhibition of HBsAg in HepG2.2.15 cells)
Assay type: cell-based, hepatitis B virus
Conditions: Hepatitis B virus, HepG2.2.15, 144 h, read-out: sAg EC50, HepG2.2.15 cells; supernatant HBsAg by CLIA at day 6 after exposure of compounds
Method: Inhibition of HBsAg was determined in HepG2.2.15 cells. Cells were maintained in culture medium containing 10% fetal calf serum, […], Glutamine, penicillin/streptomycin. Cells were seeded in 96-well collagen-coated plate at a density of 30,000 cells/well. Serially diluted compounds were added to cells next day at the final DMSO concentration of 0.5%. Cells were incubated with compounds for 2-3 days, after which medium was removed. Fresh medium containing compounds was added to cells for additional 3-4 days. At day 6 after exposure of compounds, supernatant was collected, the HBsAg immunoassay (microplate-based chemiluminescence immunoassay kits, CLIA, Autobio Diagnosics Co., Zhengzhou, China, Catalog #CL0310-2) was used to determine the level of HBsAg according to manufactory instruction. Dose-response curves were generated and the EC50 value (effective concentrations that achieved 50% inhibitory effect) were determined using XLfit software. In addition, cells were seeded at a density of 5,000 cells/well for determination of cell viability in the presence and absence of compounds by using CellTiter-Glo reagent (Promega).

Compound	pEC50
CCC1c2cc(F)c(OC)cc2C(=O)N1c1ccnc(-c2ncccn2)n1 (stereo not shown) [Example 48, 2-([2,2′-Bipyrimidin]-4-yl)-3-ethyl-5-fluoro-6-methoxyisoindolin-1-one]	7.70
CCCC1c2cc(OC)c(OC)cc2C(=O)N1c1ccnc(-c2ncccn2)n1 (stereo not shown) [Example 38, 2-([2,2′-Bipyrimidin]-4-yl)-5,6-dimethoxy-3-propylisoindolin-1-one]	8.00
O=C1c2cc(F)c(F)cc2CN1c1ccnc(-c2ncccn2)n1 [Example 61, 2-([2,2′-Bipyrimidin]-4-yl)-5,6-difluoroisoindolin-1-one]	6.35
COc1cc2c(cc1F)C1(CC1)N(c1ccnc(-c3ncccn3)n1)C2=O [Example 47, 2′-([2,2′-Bipyrimidin]-4-yl)-6′-fluoro-5′-methoxyspiro[cyclopropane-1,1′-isoindolin]-3′-one]	6.92
COc1cc2c(cc1OC)C(=O)N(c1ccnc(-c3ncccn3)n1)C2 [Example 62, 2-([2,2′-Bipyrimidin]-4-yl)-5,6-dimethoxyisoindolin-1-one]	6.89
CCC1c2cc(OC)c(OC)cc2C(=O)N1c1cc(C)nc(-c2ncccn2)n1 (stereo not shown) [Example 36, 3-Ethyl-5,6-dimethoxy-2-(6-methyl-[2,2′-bipyrimidin]-4-yl)isoindolin-1-one]	5.00
CCC1c2cc(F)c(OC(C)C)cc2C(=O)N1c1nc(-c2ncccn2)ncc1F (single isomer, unassigned) [Example 57, 3-Ethyl-5-fluoro-2-(5-fluoro-[2,2′-bipyrimidin]-4-yl)-6-isopropoxyisoindolin-1-one]	6.96
COc1cc2c(cc1OC)C(C1CCOCC1)N(c1ccnc(-c3ncccn3)n1)C2=O (stereo not shown) [Example 29, 2-([2,2′-Bipyrimidin]-4-yl)-5,6-dimethoxy-3-(tetrahydro-2H-pyran-4-yl)isoindolin-1-one]	7.52
CCC1c2cc(OC)c(OC)cc2C(=O)N1c1cnc(-c2ncccn2)nc1 (stereo not shown) [Example 30, 3-Ethyl-5,6-dimethoxy-2-(2-pyrimidin-2-ylpyrimidin-5-yl)isoindolin-1-one]	4.32
CCC1c2cc(OC)c(OC)cc2C(=O)N1c1ccnc(-c2ncccn2)c1 (stereo not shown) [Example 32, 3-Ethyl-5,6-dimethoxy-2-(2-(pyrimidin-2-yl)pyridin-4-yl)isoindolin-1-one]	7.70
O=C1c2cc(F)cc(F)c2CCN1c1ccnc(-c2ncccn2)n1 [Example 64, 2-([2,2′-Bipyrimidin]-4-yl)-5,7-difluoro-3,4-dihydroisoquinolin-1(2H)-one]	5.30

Same assay, conditions: read-out: sAg EC50; HepG2.2.15 cells; supernatant HBsAg by CLIA at day 6 after exposure of compounds

Compound	pEC50
COCCC1c2cc(F)c(OC)cc2C(=O)N1c1ccnc(-c2ncccn2)n1 (single isomer, unassigned) [Example 54, 2-([2,2′-Bipyrimidin]-4-yl)-5-fluoro-6-methoxy-3-(2-methoxyethyl)isoindolin-1-one]	6.37
COc1cc2c(cc1OC)C(c1ccccc1)N(c1ccnc(-c3ncccn3)n1)C2=O (single isomer, unassigned) [Example 43, 2-([2,2′-Bipyrimidin]-4-yl)-5,6-dimethoxy-3-phenylisoindolin-1-one]	9.00
COc1cc2c(cc1OC)C(c1ccc(C)nc1)N(c1ccnc(-c3ncccn3)n1)C2=O (single isomer, unassigned) [Example 18, 2-([2,2′-Bipyrimidin]-4-yl)-5,6-dimethoxy-3-(6-methylpyridin-3-yl)isoindolin-1-one]	8.00
COCCC1c2cc(F)c(OC)cc2C(=O)N1c1ccnc(-c2ncccn2)n1 (single isomer, unassigned) [Example 53, 2-([2,2′-Bipyrimidin]-4-yl)-5-fluoro-6-methoxy-3-(2-methoxyethyl)isoindolin-1-one]	7.42
COc1cc2c(cc1OC)C(CCC(F)(F)F)N(c1ccnc(-c3ncccn3)n1)C2=O (single isomer, unassigned) [Example 16, 2-([2,2′-Bipyrimidin]-4-yl)-5,6-dimethoxy-3-(3,3,3-trifluoropropyl)isoindolin-1-one]	4.52
COc1cc2c(cc1OC)C(CC(C)C)N(c1ccnc(-c3ncccn3)n1)C2=O (single isomer, unassigned) [Example 40, 2-([2,2′-bipyrimidin]-4-yl)-3-isobutyl-5,6-dimethoxyisoindolin-1-one]	8.00
CCC1c2cc(OC)c(OC)cc2C(=O)N1c1cc(F)nc(-c2ncccn2)n1 (single isomer, unassigned) [Example 69, 3-Ethyl-2-(6-fluoro-[2,2′-bipyrimidin]-4-yl)-5,6-dimethoxyisoindolin-1-one]	4.31
CCC1c2cc(OC)c(F)cc2C(=O)N1c1ccnc(-c2ncccn2)n1 (single isomer, unassigned) [Example 52, 2-([2,2′-Bipyrimidin]-4-yl)-3-ethyl-6-fluoro-5-methoxyisoindolin-1-one]	6.40
CCC1c2cc(OC)c(OC)cc2C(=O)N1c1ccnc(-c2ncc(F)cn2)n1 (single isomer, unassigned) [Example 72, 3-Ethyl-2-(5′-fluoro-[2,2′-bipyrimidin]-4-yl)-5,6-dimethoxyisoindolin-1-one]	7.41
CCC1c2cc(OC)c(OC)cc2C(=O)N1c1ccnc(-c2ncccn2)n1 (single isomer, unassigned) [Example 2, 2-([2,2′-Bipyrimidin]-4-yl)-3-ethyl-5,6-dimethoxyisoindolin-1-one]	7.89
CCC1c2cc(Cl)cc(F)c2C(=O)N1c1ccnc(-c2ncccn2)n1 (single isomer, unassigned) [Example 20, 2-([2,2′-Bipyrimidin]-4-yl)-5-chloro-3-ethyl-7-fluoroisoindolin-1-one]	7.35
COc1ccc(C2c3cc(OC)c(OC)cc3C(=O)N2c2ccnc(-c3ncccn3)n2)cc1 (single isomer, unassigned) [Example 11, 2-([2,2′-Bipyrimidin]-4-yl)-5,6-dimethoxy-3-(4-methoxyphenyl)isoindolin-1-one]	5.40
COc1cc2c(cc1OC)C(CCC(F)(F)F)N(c1ccnc(-c3ncccn3)n1)C2=O (single isomer, unassigned) [Example 17, 2-([2,2′-Bipyrimidin]-4-yl)-5,6-dimethoxy-3-(3,3,3-trifluoropropyl)isoindolin-1-one]	7.70
COc1cc2c(cc1OC)C(c1ccc(C)nc1)N(c1ccnc(-c3ncccn3)n1)C2=O (single isomer, unassigned) [Example 19, 2-([2,2′-Bipyrimidin]-4-yl)-5,6-dimethoxy-3-(6-methylpyridin-3-yl)isoindolin-1-one]	6.41
CCC1c2cc(OC)c(OC)cc2C(=O)N1c1nc(-c2ncccn2)ncc1F (single isomer, unassigned) [Example 66, 3-Ethyl-2-(5-fluoro-[2,2′-bipyrimidin]-4-yl)-5,6-dimethoxyisoindolin-1-one]	7.47
CCC1c2cc(OC)c(OC)cc2C(=O)N1c1ccnc(-c2ncccn2)n1 (single isomer, unassigned) [Example 3, 2-([2,2′-Bipyrimidin]-4-yl)-3-ethyl-5,6-dimethoxyisoindolin-1-one]	6.00
CCC1c2cc(OC)c(F)cc2C(=O)N1c1ccnc(-c2ncccn2)n1 (single isomer, unassigned) [Example 51, 2-([2,2′-Bipyrimidin]-4-yl)-3-ethyl-6-fluoro-5-methoxyisoindolin-1-one]	6.89
